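Protocol summary: plate cells (96-well), add compound at 5 concentrations, incubate 48 h, interpolate endpoints linearly. GI50: concentration for 50% inhibition of growth.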 Active and inactive are the calls of the source. Cut-off read from the data, not from the text of the source: active = GI50 up to about 1.1 µM and inactive = higher.
Assays:
Assay in all cases: inhibition of tumour cell growth, NCI panel, 48 h
MDA-N = test system: MDA-N
MDA-MB-231 = test system: MDA-MB-231
SK-MEL-5 = test system: SK-MEL-5
SN12C = test system: SN12C
MCF7 = test system: MCF7
HOP-62 = test system: HOP-62
SK-OV-3 = test system: SK-OV-3
T47D = test system: T47D
SNB-75 = test system: SNB-75
RPMI-8226 = test system: RPMI-8226
DU-145 = test system: DU-145
OVCAR-4 = test system: OVCAR-4
KM12 = test system: KM12
Malme-3M = test system: Malme-3M
COLO 205 = test system: COLO 205
IGROV-1 = test system: IGROV-1
SF-539 = test system: SF-539
U-251 = test system: U-251
HCT-116 = test system: HCT-116
BT-549 = test system: BT-549

Structure (SMILES)	GI50 (MDA-N)	GI50 (MDA-MB-231)	GI50 (SK-MEL-5)	GI50 (SN12C)	GI50 (MCF7)	GI50 (HOP-62)	GI50 (SK-OV-3)	GI50 (T47D)	GI50 (SNB-75)	GI50 (RPMI-8226)	GI50 (DU-145)	GI50 (OVCAR-4)	GI50 (KM12)	GI50 (Malme-3M)	GI50 (COLO 205)	GI50 (IGROV-1)	GI50 (SF-539)	GI50 (U-251)	GI50 (HCT-116)	GI50 (BT-549)
CCN1CCN=C2c3cc(OC)ccc3Nc3c([N+](=O)[O-])ccc1c32	0.839 µM (active)	0.736 µM (active)	1.17 µM (inactive)	0.796 µM (active)	1.28 µM (inactive)	0.634 µM (active)	2.43 µM (inactive)	3.32 µM (inactive)	1.68 µM (inactive)	0.552 µM (active)	2.72 µM (inactive)	1.29 µM (inactive)	0.713 µM (active)	0.841 µM (active)	0.668 µM (active)	1.67 µM (inactive)				
CC(O)c1nc(C#N)c(N)o1 (stereo not given)	> 100 µM (inactive)	> 100 µM (inactive)	> 100 µM (inactive)	> 100 µM (inactive)	> 100 µM (inactive)	> 100 µM (inactive)	> 100 µM (inactive)	> 100 µM (inactive)	> 100 µM (inactive)	> 100 µM (inactive)	> 100 µM (inactive)		> 100 µM (inactive)	> 100 µM (inactive)	> 100 µM (inactive)	> 100 µM (inactive)	> 100 µM (inactive)	> 100 µM (inactive)	> 100 µM (inactive)	
COC[C@H](Cc1ccccc1)/N=C/c1ccccc1			> 100 µM (inactive)	> 100 µM (inactive)	> 100 µM (inactive)	> 100 µM (inactive)	> 100 µM (inactive)	> 100 µM (inactive)	> 100 µM (inactive)	> 100 µM (inactive)	> 100 µM (inactive)	> 100 µM (inactive)	> 100 µM (inactive)	> 100 µM (inactive)	> 100 µM (inactive)	> 100 µM (inactive)		> 100 µM (inactive)	> 100 µM (inactive)	> 100 µM (inactive)
CCOC(=O)c1ccc(/N=C2\Sc3nc4ccccc4n3\C2=N\c2ccc(C(=O)OCC)cc2)cc1	18.5 µM (inactive)	22.5 µM (inactive)	25.9 µM (inactive)	40.6 µM (inactive)	8.83 µM (inactive)	21.5 µM (inactive)	40.8 µM (inactive)	48.1 µM (inactive)			28.9 µM (inactive)	24.3 µM (inactive)	20.1 µM (inactive)	22.7 µM (inactive)	38.5 µM (inactive)	19.5 µM (inactive)	21 µM (inactive)		6.58 µM (inactive)	
O=C(O)c1ccc(Nc2nc3ccc(C(F)(F)F)cc3nc2-c2ccccc2)cc1	47.6 µM (inactive)		29.2 µM (inactive)	77.6 µM (inactive)	15 µM (inactive)	43 µM (inactive)		15.6 µM (inactive)	40 µM (inactive)	30.1 µM (inactive)	> 10 µM (inactive)		> 10 µM (inactive)	33.2 µM (inactive)		43.4 µM (inactive)	27 µM (inactive)	31.4 µM (inactive)	29.6 µM (inactive)	
Oc1nc2nc3ccccc3nc2nc1O	> 100 µM (inactive)	> 100 µM (inactive)	> 100 µM (inactive)	> 100 µM (inactive)	> 100 µM (inactive)	> 100 µM (inactive)	> 100 µM (inactive)	> 100 µM (inactive)	75.2 µM (inactive)	> 100 µM (inactive)	> 100 µM (inactive)	> 100 µM (inactive)	> 100 µM (inactive)	> 100 µM (inactive)	> 100 µM (inactive)	> 100 µM (inactive)	> 100 µM (inactive)	> 100 µM (inactive)	> 100 µM (inactive)	
CO[C@@](c1ccccc1)(c1nc(C#N)c(N)o1)C(F)(F)F	> 100 µM (inactive)	> 100 µM (inactive)	> 100 µM (inactive)	> 100 µM (inactive)	> 100 µM (inactive)	> 100 µM (inactive)	> 100 µM (inactive)	> 100 µM (inactive)	20.5 µM (inactive)	36.3 µM (inactive)	> 100 µM (inactive)	> 100 µM (inactive)	> 100 µM (inactive)	> 100 µM (inactive)	> 100 µM (inactive)	> 100 µM (inactive)	> 100 µM (inactive)	> 100 µM (inactive)	78.2 µM (inactive)	
O=C([O-])C1([n+]2c(-c3ccccc3)cc(-c3ccccc3)cc2-c2ccccc2)CC1	53.8 µM (inactive)		19.6 µM (inactive)	> 100 µM (inactive)	28.1 µM (inactive)	> 100 µM (inactive)		16 µM (inactive)	46.8 µM (inactive)	32.2 µM (inactive)	> 100 µM (inactive)	96.8 µM (inactive)		34.5 µM (inactive)		32.8 µM (inactive)	> 100 µM (inactive)	28.7 µM (inactive)	41.1 µM (inactive)	

Source: ChEMBL document CHEMBL1201862, “PubChem BioAssay data set” (2004)
